Read-outs that look alike come from different tables or passages of the source. Blank lines part the entries; values can stand above or below the molecule they belong to.
Key:
[1] = Biodistribution in rats (iv injection); format: in vivo; settings: rat; for Blood uptake (blood assumed 7% of body weight) / Heart uptake / Kidney uptake / Liver uptake / Lung uptake / Muscle uptake (muscle assumed 40% of body weight) / Skin uptake / Spleen uptake / Thyroid uptake / Brain uptake: iv
Experimental: While under ether anesthesia, each rat was injected in the femoral vein with 0.2 mL saline solution containing [^123 I]I-TBZ (1-5uCi) either racemic mixture, peak-A or peak-B. The rats were sacrificed at various time points postinjection by cardiac excision. The tissues were weighed and the radioactivity was measured with a Canberra gamma counter (Model 5000). The percent dose per organ was calculated by a comparison of the tissue counts to suitably diluted aliquots of the injected material. Total activities of blood and muscle were calculated assuming that they were 7% and 40% of total body weight, respectively Results are presented in Tables 3, 4A and 4B.

[2] = Regional brain distribution in rats (dissection, iv injection); format: in vivo; settings: for Regional brain uptake, cerebellum / Regional brain uptake, cortex / Regional brain uptake, hippocampus / Regional brain uptake, striatum / tissue uptake at 2 min / tissue uptake at 0.5 h / tissue uptake at 4 h / tissue uptake at 6 h / tissue uptake at 16 h: rat; for tissue uptake at 0.5 h: 30 min; for tissue uptake at 4 h: 240 min; for tissue uptake at 6 h: 2 rats only
Experimental: Regional brain distribution of [^123 I]I-TBZ (with either a racemic mixture, peak A or B) in rats was obtained after an iv injection. By dissecting, weighing and counting samples from different brain regions (cortex, striatum, hippocampus and cerebellum), % dose/gram of the samples was calculated by comparing the sample counts with the counts of the diluted initial dose. The ratio of uptake in each region was obtained by dividing % dose/gram of each region with that of the cerebellum. The effect of tetrahydrobenazine on the uptake of peak A or peak B was investigated by pretreating the rats with the TBZ 3 mg/rat at 3 min before iv injection of [^123 I]I-TBZ. At 20 min. post injection the rats were dissected and the regional brain dissection was carried out as above.

[3] = Stability of radiolabeled compound at room temperature; format: physicochemical
Experimental: The […] labeled iodovinYl-TBZ derivative ([^123 I]-TBZ, 2b) was prepared by an iododestannylation reaction. Aqueous hydrogen peroxide (1 mg/mL EtOH), 200 uL of 0.1 N HCl and 5 mCi [^123 I]sodium iodide were combined in a sealed vial. The reaction was allowed to proceed at room temperature for 20 min, after which it was terminated by addition of 0.1 mL sodium bisulfite (300 mg/ml). The reaction was then neutralized with NaHCO3 and extracted with ethyl acetate (3×1 mL). The combined organic layers were dried under nitrogen and the desired product was purified through HPLC on a reverse phase column (PRP-1, Hamilton) eluting with a isocratic solvent of 90% acetonitrile-10% buffer (5 mM 3,3'-dimethylglutaric acid, pH 7.0) and a flow rate of 1 mL/min. The radiochemical purity was analyzed by the above chromatographic system and the purified [^123 I] product (yield 50%, purity >98%) was obtained for animal experiments. The radiolabeled [^123 I]I-TBZ is stable at room temperature for up to 15 h.

[4] = test system: monoamine uptake-storage mechanism of amine granules in the synapse; settings: in vivo; cited from earlier work
[5] = up to 300 mg daily, several trials; cited from earlier work
[6] = test system: monoamine transporter of chromaffin granules and CNS synaptic vesicles; settings: cited from earlier work
[7] = cerebellum, read-out: Regional brain uptake, cerebellum
[8] = cortex, read-out: Regional brain uptake, cortex
[9] = hippocampus, read-out: Regional brain uptake, hippocampus
[10] = striatum, read-out: Regional brain uptake, striatum

Blood uptake (blood assumed 7% of body weight) ([1]; 2 min): 5.99 ± 2.54 % Dose/organ
Heart uptake ([1]; 2 min): 1.33 ± 0.19 % Dose/organ
Kidney uptake ([1]; 2 min): 4.18 ± 0.46 % Dose/organ
Liver uptake ([1]; 2 min): 11.1 ± 1.22 % Dose/organ
Lung uptake ([1]; 2 min): 4.44 ± 1.44 % Dose/organ
Muscle uptake (muscle assumed 40% of body weight) ([1]; 2 min): 6.93 ± 0.12 % Dose/organ
Skin uptake ([1]; 2 min): 4.08 ± 2.32 % Dose/organ
Spleen uptake ([1]; 2 min): 0.28 ± 0.04 % Dose/organ
Thyroid uptake ([1]; 2 min): 0.06 ± 0.02 % Dose/organ
Brain uptake ([1]; 2 min, listed as [^123 I]I-TBZ (2b)): 0.92 % Dose/organ
Brain uptake ([1]; 2 min, listed as [^123 I]I-TBZ racemic mixture): 0.92 ± 0.13 % Dose/organ
Blood uptake (blood assumed 7% of body weight) ([1]; 30 min): 1.84 ± 0.17 % Dose/organ
Heart uptake ([1]; 30 min): 0.34 ± 0.02 % Dose/organ
Kidney uptake ([1]; 30 min): 1.55 ± 0.21 % Dose/organ
Liver uptake ([1]; 30 min): 9.75 ± 1.83 % Dose/organ
Lung uptake ([1]; 30 min): 1.02 ± 0.14 % Dose/organ
Muscle uptake (muscle assumed 40% of body weight) ([1]; 30 min): 20.18 ± 2.19 % Dose/organ
Skin uptake ([1]; 30 min): 11.53 ± 2.54 % Dose/organ
Spleen uptake ([1]; 30 min): 0.29 ± 0.03 % Dose/organ
Thyroid uptake ([1]; 30 min): 0.03 ± 0.005 % Dose/organ
Brain uptake ([1]; 30 min, listed as [^123 I]I-TBZ (2b)): 0.36 % Dose/organ
Brain uptake ([1]; 30 min, listed as [^123 I]I-TBZ racemic mixture): 0.36 ± 0.05 % Dose/organ
Blood uptake (blood assumed 7% of body weight) ([1]; 60 min): 2.46 ± 0.56 % Dose/organ
Brain uptake ([1]; 60 min): 0.28 ± 0.05 % Dose/organ
Heart uptake ([1]; 60 min): 0.35 ± 0.06 % Dose/organ
Kidney uptake ([1]; 60 min): 1.47 ± 0.22 % Dose/organ
Liver uptake ([1]; 60 min): 8.57 ± 0.41 % Dose/organ
Lung uptake ([1]; 60 min): 1.47 ± 0.64 % Dose/organ
Muscle uptake (muscle assumed 40% of body weight) ([1]; 60 min): 14.9 ± 1.77 % Dose/organ
Skin uptake ([1]; 60 min): 6.39 ± 2.37 % Dose/organ
Spleen uptake ([1]; 60 min): 0.37 ± 0.10 % Dose/organ
Thyroid uptake ([1]; 60 min): 0.05 ± 0.002 % Dose/organ
Blood uptake (blood assumed 7% of body weight) ([1]; 120 min): 2.16 ± 0.21 % Dose/organ
Brain uptake ([1]; 120 min): 0.16 ± 0.03 % Dose/organ
Heart uptake ([1]; 120 min): 0.24 ± 0.06 % Dose/organ
Kidney uptake ([1]; 120 min): 0.97 ± 0.13 % Dose/organ
Liver uptake ([1]; 120 min): 6.71 ± 0.84 % Dose/organ
Lung uptake ([1]; 120 min): 0.78 ± 0.43 % Dose/organ
Muscle uptake (muscle assumed 40% of body weight) ([1]; 120 min): 15.4 ± 4.17 % Dose/organ
Skin uptake ([1]; 120 min): 7.05 ± 1.52 % Dose/organ
Spleen uptake ([1]; 120 min): 0.20 ± 0.06 % Dose/organ
Thyroid uptake ([1]; 120 min): 0.08 ± 0.05 % Dose/organ
Blood uptake (blood assumed 7% of body weight) ([1]; 240 min): 1.82 ± 0.26 % Dose/organ
Brain uptake ([1]; 240 min): 0.13 ± 0.04 % Dose/organ
Heart uptake ([1]; 240 min): 0.18 ± 0.03 % Dose/organ
Kidney uptake ([1]; 240 min): 0.73 ± 0.13 % Dose/organ
Liver uptake ([1]; 240 min): 4.57 ± 0.69 % Dose/organ
Lung uptake ([1]; 240 min): 0.54 ± 0.09 % Dose/organ
Muscle uptake (muscle assumed 40% of body weight) ([1]; 240 min): 11.24 ± 2.57 % Dose/organ
Skin uptake ([1]; 240 min): 4.21 ± 0.25 % Dose/organ
Spleen uptake ([1]; 240 min): 0.18 ± 0.02 % Dose/organ
Thyroid uptake ([1]; 240 min): 0.15 ± 0.18 % Dose/organ
Blood uptake (blood assumed 7% of body weight) ([1]; 6 hr, 2 rats only): 1.58 ± 0.15 % Dose/organ
Brain uptake ([1]; 6 hr, 2 rats only): 0.05 ± 0.001 % Dose/organ
Heart uptake ([1]; 6 hr, 2 rats only): 0.11 ± 0.01 % Dose/organ
Kidney uptake ([1]; 6 hr, 2 rats only): 0.45 ± 0.03 % Dose/organ
Liver uptake ([1]; 6 hr, 2 rats only): 3.21 ± 0.28 % Dose/organ
Lung uptake ([1]; 6 hr, 2 rats only): 0.36 % Dose/organ
Muscle uptake (muscle assumed 40% of body weight) ([1]; 6 hr, 2 rats only): 6.94 ± 0.93 % Dose/organ
Skin uptake ([1]; 6 hr, 2 rats only): 4.15 ± 0.63 % Dose/organ
Spleen uptake ([1]; 6 hr, 2 rats only): 0.11 ± 0.004 % Dose/organ
Thyroid uptake ([1]; 6 hr, 2 rats only): 0.42 ± 0.15 % Dose/organ
Blood uptake (blood assumed 7% of body weight) ([1]; 16 hr): 0.42 ± 0.07 % Dose/organ
Brain uptake ([1]; 16 hr): 0.008 ± 0.001 % Dose/organ
Heart uptake ([1]; 16 hr): 0.02 ± 0.003 % Dose/organ
Kidney uptake ([1]; 16 hr): 0.12 ± 0.015 % Dose/organ
Liver uptake ([1]; 16 hr): 1.32 ± 0.096 % Dose/organ
Lung uptake ([1]; 16 hr): 0.07 ± 0.006 % Dose/organ
Muscle uptake (muscle assumed 40% of body weight) ([1]; 16 hr): 1.49 ± 0.23 % Dose/organ
Skin uptake ([1]; 16 hr): 2.04 ± 0.18 % Dose/organ
Spleen uptake ([1]; 16 hr): 0.02 ± 0.002 % Dose/organ
Thyroid uptake ([1]; 16 hr): 0.009 ± 0.004 % Dose/organ
Regional distribution / selectivity in rat brain (in words) ([2]; listed as [^123 I]-2b): did not exhibit any selectivity
Regional distribution / selectivity in rat brain (in words) ([2]; listed as [^123 I]I-TBZ (2b)): exhibits no regional selectivity
Regional brain uptake, cerebellum ([2]; 60 min): 0.14 ± 0.04 % Dose/g
Regional brain uptake, cortex ([2]; 60 min): 0.14 ± 0.04 % Dose/g
Regional brain uptake, hippocampus ([2]; 60 min): 0.14 ± 0.02 % Dose/g
Regional brain uptake, striatum ([2]; 60 min): 0.15 ± 0.03 % Dose/g
Regional brain uptake, cerebellum ([2]; 120 min): 0.14 ± 0.003 % Dose/g
Regional brain uptake, cortex ([2]; 120 min): 0.15 ± 0.09 % Dose/g
Regional brain uptake, hippocampus ([2]; 120 min): 0.12 ± 0.04 % Dose/g
Regional brain uptake, striatum ([2]; 120 min): 0.12 ± 0.04 % Dose/g
tissue uptake at 2 min [2, 7]: 0.5 ± 0.13 %ID/g
tissue uptake at 0.5 h [2, 7]: 0.17 ± 0.03 %ID/g
tissue uptake at 4 h [2, 7]: 0.051 ± 0.014 %ID/g
tissue uptake at 6 h [2, 7]: 0.025 ± 0.0002 %ID/g
tissue uptake at 16 h [2, 7]: 0.0063 ± 0.001 %ID/g
tissue uptake at 2 min [2, 8]: 0.55 ± 0.24 %ID/g
tissue uptake at 0.5 h [2, 8]: 0.2 ± 0.02 %ID/g
tissue uptake at 4 h [2, 8]: 0.052 ± 0.021 %ID/g
tissue uptake at 6 h [2, 8]: 0.022 %ID/g
tissue uptake at 16 h [2, 8]: 0.0061 ± 0.0013 %ID/g
tissue uptake at 2 min [2, 9]: 0.58 ± 0.16 %ID/g
tissue uptake at 0.5 h [2, 9]: 0.21 ± 0.02 %ID/g
tissue uptake at 4 h [2, 9]: 0.048 ± 0.015 %ID/g
tissue uptake at 6 h [2, 9]: 0.028 ± 0.0064 %ID/g
tissue uptake at 16 h [2, 9]: 0.0051 ± 0.002 %ID/g
tissue uptake at 2 min [2, 10]: 0.54 ± 0.21 %ID/g
tissue uptake at 0.5 h [2, 10]: 0.21 ± 0.006 %ID/g
tissue uptake at 4 h [2, 10]: 0.056 ± 0.014 %ID/g
tissue uptake at 6 h [2, 10]: 0.024 ± 0.0029 %ID/g
tissue uptake at 16 h [2, 10]: 0.0062 ± 0.0026 %ID/g
Stable at room temperature for up to [3]: up to 15 h
Compound: COc1cc2c(cc1OC)C1CC(O)(C=C[123I])C(CC(C)C)CN1CC2 (racemic) [Compound 2b]
Crossing of the intact blood brain barrier and localization in the brain (in words) [1]: can cross the intact blood brain barrier and localize in the brain

Compound: COC(=O)[C@H]1[C@H]2C[C@@H]3c4[nH]c5cc(OC)ccc5c4CCN3C[C@H]2C[C@@H](OC(=O)c2cc(OC)c(OC)c(OC)c2)[C@@H]1OC [Reserpine]
Irreversible damage to storage mechanism / neurons (in words) [4]: the storage mechanism is irreversibly damaged

Compound: COc1cc2c(cc1OC)C1CC(=O)C(CC(C)C)CN1CC2 (stereo not shown) [TBZ, 3-(2-methylpropyl)-9,10-dimethoxy-1,3,4,6,7,11b-hexahydro-2H-benzo[a]quinolizin-2-one]
Duration of depletion of catecholamines and serotonin in the brain (in words) [4]: shorter duration
Irreversible damage to storage mechanism / neurons (in words) [4]: do not cause irreversible damage to neurons
Effect on tardive dyskinesia in patients (in words) [5]: improved tardive dyskinesia

Compound: COc1cc2c(cc1OC)C1CC(OC(C)=O)C(CC(C)C)CN1CC2 (stereo not shown) [acetyl derivative of dihydro-TBZ]
binding affinity for the transporter (in words) [6]: retain high affinity
